Results from publication PMC7998731, “Pharmacokinetic Characterization of Supinoxin and Its Physiologically Based Pharmacokinetic Modeling in Rats” (Pharmaceutics, 2021).
Where two headings read alike, the source gives them in different places.

Assays:
[1] = Plasma protein binding by Rapid Equilibrium Dialysis; type: in vitro ADME; conditions: rat plasma
Description: To determine the unbound fraction of supinoxin in the plasma, a protein binding study was carried out using the Rapid Equilibrium Dialysis (RED) method. Following the manufacturer’s protocol (Thermo Fisher Scientific, San Jose, CA, USA), supinoxin was added to a plasma aliquot to produce a final concentration of 1 µg/mL. A plasma aliquot containing supinoxin (200 µL) and buffer (350 µL) was added to the sample chamber and the buffer chamber, respectively. When necessary, supinoxin was added to the microsomal incubation mixture (0.5 mg of protein per mL in potassium phosphate buffer) to produce final concentrations of 1 µM. The plate was covered and agitated on an orbital shaker at approximately 250 rpm at 37 °C. Aliquots (25 µL) of the plasma and buffer were collected at 4, 8, 18, and 24 h, and the samples were subjected to LC–MS/MS analysis. The fraction of supinoxin bound to plasma protein was estimated as follows:Percent bound (%) = [1 − (concentration in buffer/concentration in plasma)] × 100%(5)

[2] = system: advanced triple-negative breast cancer; set-up: method as in doi:10.1200/JCO.2018.36.15_suppl.1097; conditions: cited from earlier work
CYP3A4 = target: T1, CYP3A4 (Homo sapiens, UniProt P08684); test: CYP inhibition, Vivid CYP450 screening kit; type: in vitro ADME
T1 construct: purchased Thermo Fisher Scientific
T1 sequence (P08684 whole entry): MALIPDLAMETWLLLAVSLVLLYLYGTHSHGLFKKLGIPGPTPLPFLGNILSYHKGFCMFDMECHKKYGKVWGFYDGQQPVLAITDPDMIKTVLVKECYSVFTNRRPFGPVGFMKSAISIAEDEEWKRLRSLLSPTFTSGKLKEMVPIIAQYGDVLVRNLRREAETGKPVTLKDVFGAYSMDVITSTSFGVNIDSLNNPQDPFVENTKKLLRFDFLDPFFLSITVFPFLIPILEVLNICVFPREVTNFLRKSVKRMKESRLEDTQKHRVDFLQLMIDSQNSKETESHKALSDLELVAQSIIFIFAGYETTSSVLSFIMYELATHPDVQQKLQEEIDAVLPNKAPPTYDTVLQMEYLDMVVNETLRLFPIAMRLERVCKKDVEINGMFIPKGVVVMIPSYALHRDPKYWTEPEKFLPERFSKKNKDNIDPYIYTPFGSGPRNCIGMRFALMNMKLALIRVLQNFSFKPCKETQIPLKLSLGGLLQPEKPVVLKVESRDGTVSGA
Description: (§1) CYP inhibition by supinoxin was studied using Vivid® CYP450 screening kits (Thermo Fisher Scientific, San Jose, CA, USA) following the manufacturer’s instructions. Briefly, Vivid® substrates were dissolved in acetonitrile yielding a stock solution of 2 mM. Fluorescent assays were conducted at room temperature using Costar 96-well black plates (#3915; Corning Costar, Acton, MA, USA). Supinoxin stock solution was diluted in reaction buffer to yield a 2.5X concentration solution (final concentration of 10 µM); aliquots (40 μL) of the solution were added to the wells. Subsequently, aliquots (50 μL) of reaction mixture consisting of P450 Baculosomes® Reagent and the NADPH regeneration system were also added to the wells and preincubated for 10 min, at room temperature, after which 10 μL of 1 mM NADP^+ and Vivid® substrate mixture were added. After a 30-min incubation, fluorescence was detected in end-point mode using a Varioscan™ Flash multimode reader (Thermo Fisher Scientific, San Jose, CA, USA). Background fluorescence was obtained from wells not containing CYP isozymes and was withdrawn before further reaction. The excitation and emission wavelengths of 485 nm/530 nm for Vivid® Green substrates, and 409 nm/460 nm for Vivid® Blue substrates were used. The inhibition percentage of the compound was determined in comparison to the vehicle (i.e., DMSO)-treated control wells. For isozymes with > 50% inhibition at 10 μM, we determined the concentration-dependent inhibition of supinoxin to obtain the IC50 value at concentrations ranging from 0.59 to 10 μM.

CYP2C9 = target: T2, CYP2C9 (Homo sapiens, UniProt P11712); test: CYP inhibition, Vivid CYP450 screening kit; type: in vitro ADME
T2 construct: purchased Thermo Fisher Scientific
T2 sequence (P11712 whole entry): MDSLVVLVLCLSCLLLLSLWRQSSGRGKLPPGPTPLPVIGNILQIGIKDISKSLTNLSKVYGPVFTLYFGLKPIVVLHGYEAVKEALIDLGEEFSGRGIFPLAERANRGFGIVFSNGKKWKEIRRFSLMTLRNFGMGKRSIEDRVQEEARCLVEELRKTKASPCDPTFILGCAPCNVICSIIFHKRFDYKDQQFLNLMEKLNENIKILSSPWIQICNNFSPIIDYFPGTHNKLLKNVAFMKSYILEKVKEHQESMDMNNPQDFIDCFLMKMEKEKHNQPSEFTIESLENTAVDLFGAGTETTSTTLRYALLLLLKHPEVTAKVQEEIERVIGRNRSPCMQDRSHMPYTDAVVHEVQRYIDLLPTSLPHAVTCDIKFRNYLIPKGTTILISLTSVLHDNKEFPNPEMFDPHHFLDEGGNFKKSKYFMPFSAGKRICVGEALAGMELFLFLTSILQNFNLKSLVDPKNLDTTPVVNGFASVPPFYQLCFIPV
Description: as §1

CYP1A2 = target: T3, CYP1A2 (Homo sapiens, UniProt P05177); test: CYP inhibition, Vivid CYP450 screening kit; type: in vitro ADME
T3 construct: purchased Thermo Fisher Scientific
T3 sequence (P05177 1-516): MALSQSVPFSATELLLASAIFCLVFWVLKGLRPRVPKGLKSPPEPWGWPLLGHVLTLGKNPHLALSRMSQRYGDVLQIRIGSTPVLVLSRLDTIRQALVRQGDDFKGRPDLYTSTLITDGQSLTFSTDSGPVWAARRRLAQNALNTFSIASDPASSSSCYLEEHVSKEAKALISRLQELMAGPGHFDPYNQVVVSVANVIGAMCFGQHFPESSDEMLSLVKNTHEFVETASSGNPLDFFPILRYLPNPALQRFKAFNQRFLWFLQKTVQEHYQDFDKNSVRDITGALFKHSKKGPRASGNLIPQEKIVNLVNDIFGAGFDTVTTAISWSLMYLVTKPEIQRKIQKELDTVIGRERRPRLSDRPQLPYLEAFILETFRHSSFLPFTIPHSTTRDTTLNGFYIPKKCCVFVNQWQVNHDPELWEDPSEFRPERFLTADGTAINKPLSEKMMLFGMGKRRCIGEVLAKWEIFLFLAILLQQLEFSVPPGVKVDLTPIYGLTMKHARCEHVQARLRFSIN
Description: as §1

CYP2D6 = target: T4, CYP2D6 (Homo sapiens, UniProt P10635); test: CYP inhibition, Vivid CYP450 screening kit; type: in vitro ADME
T4 construct: purchased Thermo Fisher Scientific
T4 sequence (P10635 whole entry): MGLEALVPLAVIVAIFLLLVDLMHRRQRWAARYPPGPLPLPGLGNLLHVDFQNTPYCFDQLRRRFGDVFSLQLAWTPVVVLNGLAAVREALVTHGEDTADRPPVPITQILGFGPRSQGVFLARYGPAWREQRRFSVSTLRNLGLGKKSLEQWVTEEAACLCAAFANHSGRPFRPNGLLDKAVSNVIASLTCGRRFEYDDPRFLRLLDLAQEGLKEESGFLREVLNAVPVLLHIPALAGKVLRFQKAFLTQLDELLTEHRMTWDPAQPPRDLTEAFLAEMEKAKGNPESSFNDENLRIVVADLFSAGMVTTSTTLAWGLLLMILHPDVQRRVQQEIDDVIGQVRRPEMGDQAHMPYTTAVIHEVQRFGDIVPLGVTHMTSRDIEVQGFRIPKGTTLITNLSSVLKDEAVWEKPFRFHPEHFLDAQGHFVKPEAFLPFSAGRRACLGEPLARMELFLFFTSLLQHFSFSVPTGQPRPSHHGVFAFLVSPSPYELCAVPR
Description: as §1

CYP2C19 = target: T5, CYP2C19 (Homo sapiens, UniProt P33261); test: CYP inhibition, Vivid CYP450 screening kit; type: in vitro ADME
T5 construct: purchased Thermo Fisher Scientific
T5 sequence (P33261 whole entry): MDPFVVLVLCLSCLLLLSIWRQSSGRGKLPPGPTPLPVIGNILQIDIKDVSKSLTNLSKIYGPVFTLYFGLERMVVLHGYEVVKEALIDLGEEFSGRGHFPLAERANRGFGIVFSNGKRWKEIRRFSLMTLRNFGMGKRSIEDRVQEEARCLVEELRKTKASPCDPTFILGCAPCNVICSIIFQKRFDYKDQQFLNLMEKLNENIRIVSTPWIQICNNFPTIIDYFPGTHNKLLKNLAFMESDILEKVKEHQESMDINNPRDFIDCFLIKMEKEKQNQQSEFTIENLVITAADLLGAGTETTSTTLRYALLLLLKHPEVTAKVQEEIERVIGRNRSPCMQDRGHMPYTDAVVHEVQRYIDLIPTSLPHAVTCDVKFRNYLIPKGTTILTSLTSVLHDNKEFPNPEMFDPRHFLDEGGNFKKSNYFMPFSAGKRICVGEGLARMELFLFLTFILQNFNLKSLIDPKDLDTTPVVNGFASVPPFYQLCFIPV
Description: as §1

[3] = Tissue distribution (tissue-to-plasma partition) in rats; type: in vivo; conditions: male, rat; for Vd: oral; for AUC(0-t): mean, read-out: AUC0–24h

Q: With COc1cc(OC)cc(N2CCN(C(=O)Nc3nc4cc(F)ccc4nc3OC)CC2)c1 [supinoxin, 1-(3,5-Dimethoxyphenyl)-4-[(6-Fluoro-2-Methoxyquinoxalin-3-yl) Aminocarbonyl] Piperazine] as the compound, how does the fraction unbound at 4 h, 1 µg/mL ([1]; 1 µg/mL, 4 h incubation) read?
A: 0.023 ± 0.0025

Q: And the fraction unbound at 8 h, 1 µg/mL ([1]; 1 µg/mL, 8 h incubation)?
A: 0.0283 ± 0.0019

Q: What about the fraction unbound at 24 h, 1 µg/mL ([1]; 1 µg/mL, 24 h incubation) of the same compound?
A: 0.0354 ± 0.0055

Q: And the fraction unbound at 1 µg/mL ([1]; as fraction, Determined, read-out: Fraction unbound in plasma (fu))?
A: 0.0363

Q: And the “patients with stable disease” value ([2]; after two cycles of therapy)?
A: five of the 11 patients

Q: And the “safety and tolerability of the suggested dose” value [2]?
A: safe and well tolerated

Q: What about the tumor reduction ([2]; one subject, after two cycles of therapy) of the same compound?
A: 18.2%

Q: What about the IC50 (CYP3A4; human recombinant CYP3A4, 0.59 to 10 μM) of the same compound?
A: 4.66 µM

Q: And the inhibition at 30 min, 10 µM (CYP3A4; recombinant human CYP3A4 (P450 Baculosomes), probe Vivid substrate, human recombinant CYP3A4, 10 µM)?
A: > 50%

Q: What about the IC50 (CYP2C9; human recombinant CYP2C9) of the same compound?
A: > 10 µM

Q: And the inhibition at 30 min, 10 µM (CYP2C9; recombinant human CYP2C9 (P450 Baculosomes), probe Vivid substrate, human recombinant CYP2C9, 10 µM, read-out: inhibition compared to the vehicle control)?
A: 16.2%

Q: What about the IC50 (CYP1A2; human recombinant CYP1A2) of the same compound?
A: > 10 µM

Q: What about the inhibition at 30 min, 10 µM (CYP1A2; recombinant human CYP1A2 (P450 Baculosomes), probe Vivid substrate, human recombinant CYP1A2, 10 µM, read-out: inhibition compared to the vehicle control) of the same compound?
A: 5.9%

Q: And the IC50 (CYP2D6; human recombinant CYP2D6)?
A: > 10 µM

Q: What about the inhibition at 30 min, 10 µM (CYP2D6; recombinant human CYP2D6 (P450 Baculosomes), probe Vivid substrate, human recombinant CYP2D6, 10 µM, read-out: inhibition compared to the vehicle control) of the same compound?
A: < 0.01%

Q: And the IC50 (CYP2C19; human recombinant CYP2C19)?
A: > 10 µM

Q: And the inhibition at 30 min, 10 µM (CYP2C19; recombinant human CYP2C19 (P450 Baculosomes), probe Vivid substrate, human recombinant CYP2C19, 10 µM, read-out: inhibition compared to the vehicle control)?
A: 35.7%

Q: And the Vd ([3]; Sprague Dawley, plasma, 5 mg/kg, estimated Kp and tissue volumes from literature, read-out: steady state volume of distribution calculated from Kp and tissue volumes)?
A: 1.92 L

Q: And the AUC(0-t) ([3]; Sprague Dawley, Adipose tissue, rats, oral administration (5 mg/kg))?
A: 111 µg·h/mL

Q: What about the AUC(0-t) ([3]; Sprague Dawley, Spleen, rats, oral administration (5 mg/kg)) of the same compound?
A: 3.31 µg·h/mL

Q: What about the AUC(0-t) ([3]; Sprague-Dawley, kidney, Kidneys, rats, oral administration (5 mg/kg)) of the same compound?
A: 11.1 µg·h/mL

Q: What about the Kp ([3]; Sprague-Dawley, kidney, Kidneys, rats, oral administration (5 mg/kg), read-out: Kp (tissue to plasma AUC ratio)) of the same compound?
A: 2.18

Q: What about the AUC(0-t) ([3]; Sprague-Dawley, lung, Lungs, rats, oral administration (5 mg/kg)) of the same compound?
A: 5.52 µg·h/mL

Q: What about the Kp ([3]; Sprague-Dawley, lung, Lungs, rats, oral administration (5 mg/kg), read-out: Kp (tissue to plasma AUC ratio)) of the same compound?
A: 1.08

Q: What about the AUC(0-t) ([3]; Sprague-Dawley, muscle, Muscles, rats, oral administration (5 mg/kg)) of the same compound?
A: 6.13 µg·h/mL

Q: What about the Kp ([3]; Sprague-Dawley, muscle, Muscles, rats, oral administration (5 mg/kg), read-out: Kp (tissue to plasma AUC ratio)) of the same compound?
A: 1.2

Q: And the Vd ([3]; Sprague-Dawley, 5 mg/kg, sum of Kp × Volume over plasma and tissues, read-out: Vd)?
A: 1.92 L/kg

Q: And the Kp ([3]; Sprague-Dawley, several tissues (range over tissues), intravenous, 5 mg/kg, range over tissues, PBPK input parameter, Determined, read-out: Tissue: Plasma partition coefficients)?
A: 0.649 to 21.7

Q: And the AUC(0-t) ([3]; Sprague-Dawley, Adipose tissue, rats, oral administration (5 mg/kg))?
A: 111 µg·h/mL

Q: And the Kp ([3]; Sprague-Dawley, Adipose tissue, rats, oral administration (5 mg/kg), read-out: Kp (tissue to plasma AUC ratio))?
A: 21.7

Q: And the AUC(0-t) ([3]; Sprague-Dawley, Brain, rats, oral administration (5 mg/kg))?
A: 4.35 µg·h/mL

Q: And the Kp ([3]; Sprague-Dawley, Brain, rats, oral administration (5 mg/kg), read-out: Kp (tissue to plasma AUC ratio))?
A: 0.85

Q: What about the AUC(0-t) ([3]; Sprague-Dawley, Gut, rats, oral administration (5 mg/kg)) of the same compound?
A: 25.3 µg·h/mL

Q: And the Kp ([3]; Sprague-Dawley, Gut, rats, oral administration (5 mg/kg), read-out: Kp (tissue to plasma AUC ratio))?
A: 4.96

Q: And the AUC(0-t) ([3]; Sprague-Dawley, Heart, rats, oral administration (5 mg/kg))?
A: 3.55 µg·h/mL

Q: And the Kp ([3]; Sprague-Dawley, Heart, rats, oral administration (5 mg/kg), read-out: Kp (tissue to plasma AUC ratio))?
A: 0.7

Q: And the AUC(0-t) ([3]; Sprague-Dawley, Liver, rats, oral administration (5 mg/kg))?
A: 24.3 µg·h/mL

Q: And the Kp ([3]; Sprague-Dawley, Liver, rats, oral administration (5 mg/kg), read-out: Kp (tissue to plasma AUC ratio))?
A: 4.76

Q: And the AUC(0-t) ([3]; Sprague-Dawley, Plasma, rats, oral administration (5 mg/kg))?
A: 5.11 µg·h/mL

Q: And the Kp ([3]; Sprague-Dawley, Plasma, rats, oral administration (5 mg/kg), read-out: Kp (tissue to plasma AUC ratio))?
A: 1

Q: What about the AUC(0-t) ([3]; Sprague-Dawley, Spleen, rats, oral administration (5 mg/kg)) of the same compound?
A: 3.31 µg·h/mL

Q: What about the Kp ([3]; Sprague-Dawley, Spleen, rats, oral administration (5 mg/kg), read-out: Kp (tissue to plasma AUC ratio)) of the same compound?
A: 0.65

Q: What about the AUC(0-t) ([3]; Sprague-Dawley, Testes, rats, oral administration (5 mg/kg)) of the same compound?
A: 5.37 µg·h/mL

Q: What about the Kp ([3]; Sprague-Dawley, Testes, rats, oral administration (5 mg/kg), read-out: Kp (tissue to plasma AUC ratio)) of the same compound?
A: 1.05
